Structures can show the parent of a compound that is named as a salt. Where two headings read alike, the source gives them in different places.

Among the data in patent publication US10040781B2, “Tank-binding kinase inhibitor compounds” (Gilead Sciences, Inc., priority 2014, dated 2018) are IC50 values, retold here.

Experiment [1] addresses hJAK2 (Homo sapiens (Human), UniProt O60674). Description: hJAK2 LANCE TR-FRET enzymatic assay. Format: biochemical. Conditions: read-out: JAK2 IC50. For orientation: Time-resolved FRET reads energy transfer from a long-lived donor to a nearby acceptor.
Experiment [2] concerns the target TBK1 (Homo sapiens (Human), UniProt Q9UHD2). Nature of the experiment: TBK1 TR-FRET enzymatic assay.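 Further: phosphorylation of a biotinylated Ser/Thr peptide by purified full-length recombinant TBK1, read by TR-FRET after 240 min at 25 °C, IC50 is the geometric mean of at least four runs.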
In experiment [3] the target is IKKε (Homo sapiens (Human), UniProt Q14164). Description: IKKε TR-FRET enzymatic assay. The following applies: read-out: IKKe IC50. It counts as biochemical.
Setting [4] is: TR-FRET, 2×Km ATP, geometric mean of minimum four determinations.

hJAK2, sequence (O60674 whole entry): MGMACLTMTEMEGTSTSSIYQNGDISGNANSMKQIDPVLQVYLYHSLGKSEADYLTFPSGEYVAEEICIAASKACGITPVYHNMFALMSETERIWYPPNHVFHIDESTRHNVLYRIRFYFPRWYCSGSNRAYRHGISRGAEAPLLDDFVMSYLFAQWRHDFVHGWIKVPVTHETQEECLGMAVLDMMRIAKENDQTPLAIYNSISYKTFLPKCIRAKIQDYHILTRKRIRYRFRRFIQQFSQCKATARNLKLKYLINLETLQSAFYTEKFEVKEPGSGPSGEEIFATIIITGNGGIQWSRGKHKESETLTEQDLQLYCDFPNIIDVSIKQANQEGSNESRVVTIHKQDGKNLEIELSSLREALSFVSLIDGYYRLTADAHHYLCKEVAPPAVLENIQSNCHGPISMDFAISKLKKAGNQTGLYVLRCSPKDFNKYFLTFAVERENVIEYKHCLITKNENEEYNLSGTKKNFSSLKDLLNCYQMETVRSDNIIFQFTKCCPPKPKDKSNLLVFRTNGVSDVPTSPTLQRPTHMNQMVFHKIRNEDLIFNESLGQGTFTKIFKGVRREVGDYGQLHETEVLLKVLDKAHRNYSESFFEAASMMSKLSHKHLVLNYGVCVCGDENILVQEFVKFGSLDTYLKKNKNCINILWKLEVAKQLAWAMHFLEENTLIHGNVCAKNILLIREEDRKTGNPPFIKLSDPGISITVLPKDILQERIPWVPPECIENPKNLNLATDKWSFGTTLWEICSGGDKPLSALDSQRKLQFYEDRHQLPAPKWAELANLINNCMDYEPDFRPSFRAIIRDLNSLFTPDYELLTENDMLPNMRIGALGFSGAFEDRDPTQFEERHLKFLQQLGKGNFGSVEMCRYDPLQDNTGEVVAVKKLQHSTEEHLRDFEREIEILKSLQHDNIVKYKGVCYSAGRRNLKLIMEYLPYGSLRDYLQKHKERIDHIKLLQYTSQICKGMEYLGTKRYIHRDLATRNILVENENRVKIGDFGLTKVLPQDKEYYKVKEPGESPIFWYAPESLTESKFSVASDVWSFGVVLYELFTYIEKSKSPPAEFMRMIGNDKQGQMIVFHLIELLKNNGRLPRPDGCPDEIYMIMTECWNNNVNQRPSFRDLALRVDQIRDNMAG
IKKε, sequence (Q14164 whole entry): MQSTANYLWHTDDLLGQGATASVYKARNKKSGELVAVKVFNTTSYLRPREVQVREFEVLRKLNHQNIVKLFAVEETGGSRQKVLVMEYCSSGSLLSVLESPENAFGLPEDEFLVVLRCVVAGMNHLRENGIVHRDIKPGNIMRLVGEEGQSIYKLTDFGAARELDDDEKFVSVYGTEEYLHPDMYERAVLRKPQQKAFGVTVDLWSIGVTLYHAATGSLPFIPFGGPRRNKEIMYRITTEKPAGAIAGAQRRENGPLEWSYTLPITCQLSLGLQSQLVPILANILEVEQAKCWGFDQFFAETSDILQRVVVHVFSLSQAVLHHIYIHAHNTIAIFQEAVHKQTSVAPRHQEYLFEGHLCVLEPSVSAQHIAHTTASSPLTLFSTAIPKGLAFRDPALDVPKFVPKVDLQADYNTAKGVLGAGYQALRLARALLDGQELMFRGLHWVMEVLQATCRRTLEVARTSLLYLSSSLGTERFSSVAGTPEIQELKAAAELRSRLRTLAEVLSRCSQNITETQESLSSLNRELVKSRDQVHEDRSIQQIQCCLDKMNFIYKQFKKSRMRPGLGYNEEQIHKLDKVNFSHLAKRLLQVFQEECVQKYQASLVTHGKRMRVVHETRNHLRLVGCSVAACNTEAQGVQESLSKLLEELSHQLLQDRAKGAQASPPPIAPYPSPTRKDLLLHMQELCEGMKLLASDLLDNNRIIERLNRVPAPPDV
TBK1, sequence (Q9UHD2 whole entry): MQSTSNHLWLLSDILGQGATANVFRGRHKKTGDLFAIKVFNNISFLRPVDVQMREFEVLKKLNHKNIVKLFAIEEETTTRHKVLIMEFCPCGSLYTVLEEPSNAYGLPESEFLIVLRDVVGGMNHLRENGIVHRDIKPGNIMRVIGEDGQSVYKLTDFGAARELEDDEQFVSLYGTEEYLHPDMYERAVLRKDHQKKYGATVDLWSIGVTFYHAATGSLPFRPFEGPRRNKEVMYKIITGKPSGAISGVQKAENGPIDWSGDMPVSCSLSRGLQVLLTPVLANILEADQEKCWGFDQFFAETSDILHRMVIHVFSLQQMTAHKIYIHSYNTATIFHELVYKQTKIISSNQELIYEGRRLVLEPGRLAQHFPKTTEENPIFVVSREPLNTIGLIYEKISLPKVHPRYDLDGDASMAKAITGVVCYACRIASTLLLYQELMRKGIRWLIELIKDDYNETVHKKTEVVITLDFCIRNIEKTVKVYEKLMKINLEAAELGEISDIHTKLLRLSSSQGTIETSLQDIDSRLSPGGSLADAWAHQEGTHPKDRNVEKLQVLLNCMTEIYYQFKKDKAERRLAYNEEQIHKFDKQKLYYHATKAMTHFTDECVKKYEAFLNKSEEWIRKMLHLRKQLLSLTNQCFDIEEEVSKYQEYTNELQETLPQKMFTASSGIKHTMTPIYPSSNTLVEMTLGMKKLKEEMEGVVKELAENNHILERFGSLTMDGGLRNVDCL

In general, IC50 refers to the point on the concentration scale where inhibition reaches its midpoint. In the case of `N#Cc1cc(-c2ncnc(Nc3ccc(N4CCN(C5COC5)CC4)cc3)n2)ccc1O[C@H]1C[C@@H]2C[C@H]1N(C(=O)CO)C2` [Example 102, 2-(((1R,4S,6S)-2-(2-hydroxyacetyl)-2-azabicyclo[2.2.1]heptan-6-yl)oxy)-5-(4-((4-(4-(oxetan-3-yl)piperazin-1-yl)phenyl)amino)-1,3,5-triazin-2-yl)benzonitrile], the IC50 came to 380 nM in experiment [1], 11 nM in experiment [2] and 24 nM in experiment [3].

As for `C[C@H](O)C(=O)N1CC[C@H](Oc2ccc(-c3ncnc(Nc4ccc(N5CCC[C@@H](O)C5)cc4)n3)cc2C#N)[C@H](F)C1` [Example 357, 2-(((3R,4S)-3-fluoro-1-((S)-2-hydroxypropanoyl)piperidin-4-yl)oxy)-5-(4-((4-((R)-3-hydroxypiperidin-1-yl)phenyl)amino)-1,3,5-triazin-2-yl)benzonitrile], the values for the IC50 in experiment [1], in experiment [2] and in experiment [3] were 511 nM, 4 nM and 2 nM, respectively.

Consider `CS(=O)(=O)c1ccc(-c2ncnc(Nc3ccc(N4CCN(C5COC5)CC4)cc3)n2)cc1` [Example 484, 4-(4-(methylsulfonyl)phenyl)-N-(4-(4-(oxetan-3-yl)piperazin-1-yl)phenyl)-1,3,5-triazin-2-amine, trifluoroacetic acid salt], for which the IC50 in experiment [1] was 837 nM; in experiment [2], 1000 nM; in experiment [3] (setting [4]), ≥ 1000 nM.

With `N#Cc1cc(-c2ncnc(Nc3ccc(N4CCN(C5COC5)CC4)cc3)n2)ccc1OC1CCN(C(=O)c2ccc[nH]2)CC1` [Example 190, 2-((1-(1H-pyrrole-2-carbonyl)piperidin-4-yl)oxy)-5-(4-((4-(4-(oxetan-3-yl)piperazin-1-yl)phenyl)amino)-1,3,5-triazin-2-yl)benzonitrile], the IC50 in experiment [1] was ≥ 1000 nM; in experiment [2], 3 nM; in experiment [3] it was 15 nM.

In the case of `N#Cc1cc(-c2ncnc(Nc3ccc(N4CCOCC4)cc3)n2)ccc1O[C@@H]1CCN(C(=O)CO)C1` [Example 103, (R)-2-((1-(2-hydroxyacetyl)pyrrolidin-3-yl)oxy)-5-(4-((4-morpholinophenyl)amino)-1,3,5-triazin-2-yl)benzonitrile], the results for the IC50 in experiment [1], in experiment [2] and in experiment [3] were 260 nM, 6 nM and 10 nM, respectively.

As to `Cn1cc(C(=O)N2CC[C@H](Oc3ccc(-c4ncnc(Nc5ccc(N6CCN(C7COC7)CC6)cc5)n4)cc3C#N)[C@H](F)C2)nn1` [Example 147, 2-(((3R,4S)-3-fluoro-1-(1-methyl-1H-1,2,3-triazole-4-carbonyl)piperidin-4-yl)oxy)-5-(4-((4-(4-(oxetan-3-yl)piperazin-1-yl)phenyl)amino)-1,3,5-triazin-2-yl)benzonitrile], the 50% inhibitory concentration (IC50) in experiment [1] turned out to be 184 nM; in experiment [2] it was 3 nM; in experiment [3], 1 nM.

For `N#Cc1cc(-c2ncnc(Nc3ccc(N4CCOCC4)cc3)n2)ccc1OC1CCOCC1` [Example 49, 5-(4-((4-morpholinophenyl)amino)-1,3,5-triazin-2-yl)-2-((tetrahydro-2H-pyran-4-yl)oxy)benzonitrile], the IC50 in experiment [1] came out at 436 nM; in experiment [2], 2 nM; in experiment [3] it was 7 nM.

Regarding `Cn1ccc(C(=O)N2CCC(Oc3ccc(-c4ncnc(Nc5ccc(N6CCN(C7COC7)CC6)cc5)n4)cc3C#N)CC2)cc1=O` [Example 595, 2-((1-(1-methyl-2-oxo-1,2-dihydropyridine-4-carbonyl)piperidin-4-yl)oxy)-5-(4-((4-(4-(oxetan-3-yl)piperazin-1-yl)phenyl)amino)-1,3,5-triazin-2-yl)benzonitrile], the figures for the IC50 in experiment [1], in experiment [2] and in experiment [3] (setting [4]) were ≥ 1000 nM, 69 nM and 89 nM, respectively.

`C[C@H](O)C(=O)N1CC[C@H](Oc2ccc(-c3ncnc(Nc4ccc(C(C)(C)O)nc4)n3)cc2C#N)[C@H](F)C1` [Example 382, 2-(((3R,4S)-3-fluoro-1-((S)-2-hydroxypropanoyl)piperidin-4-yl)oxy)-5-(4-((6-(2-hydroxypropan-2-yl)pyridin-3-yl)amino)-1,3,5-triazin-2-yl)benzonitrile]: the IC50 in experiment [1] is ≥ 1000 nM; in experiment [2] it was 3 nM; in experiment [3] it was 3 nM.
